# Results: US12661404B2, “Methods and materials for tissue ablation” (Mayo Foundation for Medical Education and Research, priority 2020, dated 2026)
# Columns and labels:
# [1] = system: human hepatocellular carcinoma (Hep-G2) cells; assay: cells; details: HepG2, 24 h, read-out: EC50, fractional viability
# Protocol: HepG2 human liver cancer cell line (ATCC CRL10741; American Type Culture Collection, Manassas, VA, USA) were cultured in 75 cm^2 flasks using growth medium consisting of low glucose Dulbecco's Modified Eagle Medium (DMEM, ThermoFisher) and 10% heat-inactivated bovine serum that was supplemented with 100 IU penicillin and 10 μg/mL streptomycin (Thermo Fisher Scientific). […] The anticancer activity of LATTE on HepG2 was determined using WST-1 reagent (2-(4-Iodophenyl)-3-(4-nitrophenyl)-5-(2,4-disulfophenyl)-2H-tetrazolium sodium) assay as an indication of viability/cytotoxicity treatment. WST-1 viability assay is based on the reduction of tetrazolium salt, WST-1 to an insoluble formazan dye by electron transport across the plasma membrane in viable cells that alter the optical density of the media. […] Cell viability was calculated relative to control wells that received the growth medium alone.
# All reported values are the means of three replicate experiments with each study having 8 wells per dose level. Plots of the log concentration versus fractional viability for each drug were generated for each study.
# rat liver = details: solubilized with ICG in 25%-LATTE, injected into rat liver
# Protocol: Time-dependent evaluation of chemotherapy drug diffusion and retention following LATTE injection in rat liver. […] Post necropsy, near-infrared fluorescent scans (NIRF) showing ICG retention at the two injection sites. […] Fluorescent scans visualizing Doxorubicin at the medial location of the same liver.
# Intrahepatic injections or LATTE mixtures were performed in Sprague Dawley rats via laparotomy. Anesthetized rats were placed in a supine position on a warming platform. The abdominal hair was removed with an electric shaver and scrubbed to disinfect the skin with triple applications of povidone-iodine alternating with 70% alcohol. […]
# To assess differences in ICG or doxorubicin spreading and retention following intrahepatic injections, ex vivo spectral fluorescence imaging was performed on fixed liver tissues using the IVIS 200 system (PerkinElmer, Inc. USA). […] Cross-sectional images were acquired following near-infrared illumination at the excitation wavelength of 750 nm, while fluorescent emission was acquired at 850 nm to visualize indocyanine green (ICG); Doxorubicin was detected at an excitation wavelength of 460 nm and an emission wavelength of 560 nm. […] Fluorescent intensity was quantified in the region of interest (ROI) of each tissue. […]
# renal artery = system: renal artery; design: species or system swine; details: in vivo
# Protocol: Healthy Yorkshire pigs (S&S Farms, Brentwood, CA) weighing 48 to 55 kg were acclimatized for at least 4 days under standard feeding conditions and suitable temperature. Pigs were anesthetized using intramuscular injection of 5 mg kg^−1 tiletamine-zolazepam (Telazol, Zoetis), […] xylazine, and 0.02 mg kg^−1 glycopyrrolate. Pigs were then placed in a supine position and intubated on an X-ray compatible operating table (Pannomed Aeron, DRE, KY). Following intubation, anesthesia was maintained with inhalation of 1.5-3% isoflurane. During the procedure, electrocardiogram, transcutaneous oxyhemoglobin saturation (SpO2), end-tidal CO2 concentration, inspired oxygen fraction, and core temperature were monitored. Percutaneous access to the carotid artery was obtained using ultrasound guidance (ACUSON 52000, Siemens) and fluoroscopy (OEC Elite C-Arm, GE Healthcare Systems, Chicago, IL). Access needle and wire were exchanged for a 5 French catheter (Cook Medical). Over a GT-glidewire (Terumo Medical), the tip of the catheter was advanced to the renal using contrast-enhanced fluoroscopy (350 mgI mL-1 Omnipaque, GE HealthCare, MA). […] The radiopacity of NanoGel or NS hydrogel and vessel patency were assessed using digital subtraction angiography. […] At necropsy, the embolized kidneys were explanted for fluorescence imaging and histology.
Molecule,EC50 [1] [nM],doxorubicin retention throughout the affected zone (rat liver),nivolumab localization (immunohistochemistry) (renal artery)
COc1cccc2c1C(=O)c1c(O)c3c(c(O)c1C2=O)C[C@@](O)(C(=O)CO)C[C@@H]3O[C@H]1C[C@H](N)[C@H](O)[C@H](C)O1 [Doxorubicin],1630,up to 28 days,
Nivo: immunotherapy agent Nivolumab (an anti PD-1 antibody),,,localized inside the renal artery and in the surrounding area
